Measurements as given in paper PMC6299220 (mBio, 2018).
Converted amounts (≈) assume the structure as drawn. “And” between values parts separate entries of the source, which are not always exact repeats. Identical values can stand only once. Like-named read-outs stand apart in the source and are kept apart here.

Assays:
M. smegmatis = assay: MIC, MABA; format: cell-based; conditions: Mycolicibacterium smegmatis; M. smegmatis wild-type
M. abscessus = assay: MIC, MABA; format: cell-based; conditions: Mycobacteroides abscessus; M. abscessus ATCC wild type
M. avium = assay: MIC, MABA; format: cell-based; conditions: Mycobacterium avium; M. avium ATCC wild type
M. fortuitum = assay: MIC, MABA; format: cell-based; conditions: Mycolicibacterium fortuitum; M. fortuitum ATCC wild type
M. marinum = assay: MIC, MABA; format: cell-based; conditions: Mycobacterium marinum; M. marinum ATCC wild type
[1] = tested on: iniBAC promoter (PiniBAC); format: cell-based, M. bovis BCG
KasA = KasA (Mycobacterium tuberculosis, UniProt P9WQD9); assay: Microscale thermophoresis (MST) binding assay; conditions: 49.5 nM labeled KasA
[2] = tested on: mycolic acid biosynthesis in M. tuberculosis H37Rv; format: cell-based, Mycobacterium tuberculosis
[3] = tested on: M. tuberculosis 100-day-old bacilli (persisters); format: cell-based, Mycobacterium tuberculosis
[4] = tested on: M. tuberculosis H37Rv gene expression; format: cell-based, Mycobacterium tuberculosis
in vitro [5] = format: cell-based; conditions: mouse
From the text: (§1) Supplement mbo006184230st8.docx, table 1: Table S3. Profile of DG167 | column: value

[6] = Chemical stability at pH 2, 7, 9; format: physicochemical; conditions: for half-life: buffer, read-out: Chemical stability t1/2
From the text: as §1

in vitro [7] = format: in vitro ADME; conditions: for fraction unbound: plasma
From the text: as §1

[8] = format: in vitro ADME
From the text: as §1

CYP1A2 = CYP1A2 (Homo sapiens, UniProt P05177); assay: biochemical; format: in vitro ADME
From the text: as §1

CYP2C9 = CYP2C9 (Homo sapiens, UniProt P11712); assay: biochemical; format: in vitro ADME
From the text: as §1

CYP2D6 = CYP2D6 (Homo sapiens, UniProt P10635); assay: biochemical; format: in vitro ADME
From the text: as §1

CYP3A4 = CYP3A4 (Homo sapiens, UniProt P08684); assay: biochemical; format: in vitro ADME
From the text: as §1

CYP2C19 = CYP2C19 (Homo sapiens, UniProt P33261); assay: Cytochrome P450 inhibition; format: in vitro ADME; conditions: read-out: Cytochrome P450 IC50, 2C19
hERG = hERG (Homo sapiens, UniProt Q12809); assay: hERG inhibition
in vivo = conditions: female, BALB/c
Description: All animal experiments were approved by the Institutional Animal Care and Use Committee of the New Jersey Medical School, Rutgers University, and were conducted in compliance with their guidelines. […] Sequential bleeds were collected at 0.25, 0.5, 1, 3, 5, and 8 h postdose via the tail snip method. Blood (50 µl) was collected in capillary microvette EDTA blood tubes and kept on ice prior to centrifugation at 1,500 × g for 5 min. The supernatant (plasma) was transferred into a 96-well plate and stored at −80°C.
Chromatography was performed with an Agilent Zorbax SB-C8 column (2.1 by 30 mm; particle size, 3.5 µm) using a reverse-phase gradient elution. A mixture of 0.1% formic acid–Milli-Q deionized water was used for the aqueous mobile phase and 0.1% formic acid–acetonitrile (ACN) for the organic mobile phase. […] Extracts were subjected to vortex mixing for 5 min and centrifuged at 4,000 rpm for 5 min. The supernatants were analyzed by LC-MS. Verapamil IS was sourced from Sigma-Aldrich.

[9] = mouse, microsomes
in vitro [10] = conditions: African green monkey
in vitro [11] = conditions: mouse, microsomes
physchem = conditions: pH 7.4, aqueous buffer, kinetic from dmso stock
in vitro [12] = conditions: human

Sequence of CYP2C19 (P33261 whole entry, species assumed): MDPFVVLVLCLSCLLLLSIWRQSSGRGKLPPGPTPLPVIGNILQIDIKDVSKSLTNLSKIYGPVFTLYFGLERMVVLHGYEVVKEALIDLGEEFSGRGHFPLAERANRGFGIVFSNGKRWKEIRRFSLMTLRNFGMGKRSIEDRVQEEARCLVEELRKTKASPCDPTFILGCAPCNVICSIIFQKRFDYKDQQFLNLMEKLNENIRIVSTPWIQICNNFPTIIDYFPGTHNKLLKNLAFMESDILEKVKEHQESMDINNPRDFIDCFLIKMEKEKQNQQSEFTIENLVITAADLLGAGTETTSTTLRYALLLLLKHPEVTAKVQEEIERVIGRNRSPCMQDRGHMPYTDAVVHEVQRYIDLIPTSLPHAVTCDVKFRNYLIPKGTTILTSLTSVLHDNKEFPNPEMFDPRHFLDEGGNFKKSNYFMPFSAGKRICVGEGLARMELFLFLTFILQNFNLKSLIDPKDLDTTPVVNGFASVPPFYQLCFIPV
Sequence of CYP1A2 (P05177 whole entry): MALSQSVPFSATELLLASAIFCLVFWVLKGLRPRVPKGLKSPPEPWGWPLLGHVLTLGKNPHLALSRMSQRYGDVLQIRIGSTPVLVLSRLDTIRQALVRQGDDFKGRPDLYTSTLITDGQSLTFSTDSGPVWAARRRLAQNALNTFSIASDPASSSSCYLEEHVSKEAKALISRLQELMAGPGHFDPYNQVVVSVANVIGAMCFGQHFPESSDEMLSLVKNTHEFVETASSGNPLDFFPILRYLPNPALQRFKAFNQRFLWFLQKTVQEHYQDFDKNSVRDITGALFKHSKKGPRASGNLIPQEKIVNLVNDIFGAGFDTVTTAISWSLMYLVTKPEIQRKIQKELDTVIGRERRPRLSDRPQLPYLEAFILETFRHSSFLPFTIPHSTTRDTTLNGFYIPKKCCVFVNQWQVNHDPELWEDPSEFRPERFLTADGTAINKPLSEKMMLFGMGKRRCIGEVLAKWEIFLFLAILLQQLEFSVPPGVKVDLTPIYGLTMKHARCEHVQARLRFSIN
Sequence of CYP2D6 (P10635 whole entry): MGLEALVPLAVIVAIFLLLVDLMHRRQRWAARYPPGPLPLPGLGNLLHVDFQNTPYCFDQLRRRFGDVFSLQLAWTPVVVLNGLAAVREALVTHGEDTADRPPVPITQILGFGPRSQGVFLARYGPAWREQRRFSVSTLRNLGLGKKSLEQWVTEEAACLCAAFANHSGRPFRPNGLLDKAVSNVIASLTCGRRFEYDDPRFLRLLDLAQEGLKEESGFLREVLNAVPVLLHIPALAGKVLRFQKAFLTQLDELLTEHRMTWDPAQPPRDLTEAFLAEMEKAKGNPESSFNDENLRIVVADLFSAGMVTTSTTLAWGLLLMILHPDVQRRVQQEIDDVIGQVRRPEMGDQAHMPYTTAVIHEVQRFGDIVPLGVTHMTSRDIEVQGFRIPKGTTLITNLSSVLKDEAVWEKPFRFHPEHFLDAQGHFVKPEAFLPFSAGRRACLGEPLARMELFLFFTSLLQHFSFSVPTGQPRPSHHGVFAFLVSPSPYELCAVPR
Sequence of CYP2C9 (P11712 whole entry): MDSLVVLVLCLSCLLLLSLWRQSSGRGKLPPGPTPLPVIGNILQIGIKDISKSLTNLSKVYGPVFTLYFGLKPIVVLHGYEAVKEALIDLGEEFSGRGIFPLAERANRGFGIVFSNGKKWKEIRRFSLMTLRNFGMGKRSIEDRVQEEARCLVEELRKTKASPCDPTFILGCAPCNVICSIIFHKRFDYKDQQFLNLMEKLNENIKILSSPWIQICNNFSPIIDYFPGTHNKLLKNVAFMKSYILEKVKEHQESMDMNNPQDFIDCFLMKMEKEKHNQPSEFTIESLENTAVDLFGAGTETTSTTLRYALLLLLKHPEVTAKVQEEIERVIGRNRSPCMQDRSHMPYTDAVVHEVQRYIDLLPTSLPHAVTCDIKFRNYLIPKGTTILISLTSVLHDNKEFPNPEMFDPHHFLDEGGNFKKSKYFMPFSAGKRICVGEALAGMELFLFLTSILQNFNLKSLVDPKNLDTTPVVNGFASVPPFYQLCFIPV
Sequence of KasA (P9WQD9 whole entry): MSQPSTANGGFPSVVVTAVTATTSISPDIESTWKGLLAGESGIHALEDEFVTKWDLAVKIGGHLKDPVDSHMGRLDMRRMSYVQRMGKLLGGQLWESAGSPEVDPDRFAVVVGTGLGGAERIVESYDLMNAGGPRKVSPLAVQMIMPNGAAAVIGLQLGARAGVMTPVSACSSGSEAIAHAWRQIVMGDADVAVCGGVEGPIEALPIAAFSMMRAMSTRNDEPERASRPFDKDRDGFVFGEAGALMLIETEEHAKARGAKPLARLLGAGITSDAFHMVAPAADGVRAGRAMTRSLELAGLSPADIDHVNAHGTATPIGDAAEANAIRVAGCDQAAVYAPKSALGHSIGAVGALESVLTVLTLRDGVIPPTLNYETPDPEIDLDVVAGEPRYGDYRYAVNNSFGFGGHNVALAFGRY
Sequence of hERG (Q12809 whole entry): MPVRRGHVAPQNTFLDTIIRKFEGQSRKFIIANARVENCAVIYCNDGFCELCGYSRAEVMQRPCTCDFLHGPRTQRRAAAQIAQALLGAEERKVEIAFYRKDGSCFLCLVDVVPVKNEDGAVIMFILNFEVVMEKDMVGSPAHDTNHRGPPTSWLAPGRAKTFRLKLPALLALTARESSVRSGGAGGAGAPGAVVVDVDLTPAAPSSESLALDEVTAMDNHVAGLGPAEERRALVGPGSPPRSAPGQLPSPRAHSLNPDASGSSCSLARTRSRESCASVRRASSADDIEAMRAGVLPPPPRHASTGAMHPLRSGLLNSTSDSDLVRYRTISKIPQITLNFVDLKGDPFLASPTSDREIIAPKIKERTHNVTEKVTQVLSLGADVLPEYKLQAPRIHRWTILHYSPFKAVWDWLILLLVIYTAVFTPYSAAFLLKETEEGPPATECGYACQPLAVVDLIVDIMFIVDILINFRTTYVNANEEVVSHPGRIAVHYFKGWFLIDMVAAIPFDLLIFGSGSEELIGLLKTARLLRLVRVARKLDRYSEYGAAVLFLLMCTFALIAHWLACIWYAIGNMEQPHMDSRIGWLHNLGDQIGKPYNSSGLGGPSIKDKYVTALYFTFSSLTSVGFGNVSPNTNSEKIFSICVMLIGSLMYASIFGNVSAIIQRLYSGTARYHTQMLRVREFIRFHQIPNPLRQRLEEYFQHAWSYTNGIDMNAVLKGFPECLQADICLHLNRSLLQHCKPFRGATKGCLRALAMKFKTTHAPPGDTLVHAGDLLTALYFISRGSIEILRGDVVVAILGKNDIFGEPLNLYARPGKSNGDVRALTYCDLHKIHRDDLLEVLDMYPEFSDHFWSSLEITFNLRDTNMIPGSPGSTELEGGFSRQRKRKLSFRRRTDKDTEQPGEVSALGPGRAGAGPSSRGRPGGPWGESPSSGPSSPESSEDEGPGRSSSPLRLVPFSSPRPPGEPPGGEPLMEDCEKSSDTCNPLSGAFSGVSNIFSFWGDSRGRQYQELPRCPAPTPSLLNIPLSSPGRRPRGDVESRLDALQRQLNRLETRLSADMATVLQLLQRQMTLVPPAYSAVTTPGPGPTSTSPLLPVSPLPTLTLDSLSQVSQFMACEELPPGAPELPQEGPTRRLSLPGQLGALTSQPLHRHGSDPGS
Sequence of CYP3A4 (P08684 whole entry): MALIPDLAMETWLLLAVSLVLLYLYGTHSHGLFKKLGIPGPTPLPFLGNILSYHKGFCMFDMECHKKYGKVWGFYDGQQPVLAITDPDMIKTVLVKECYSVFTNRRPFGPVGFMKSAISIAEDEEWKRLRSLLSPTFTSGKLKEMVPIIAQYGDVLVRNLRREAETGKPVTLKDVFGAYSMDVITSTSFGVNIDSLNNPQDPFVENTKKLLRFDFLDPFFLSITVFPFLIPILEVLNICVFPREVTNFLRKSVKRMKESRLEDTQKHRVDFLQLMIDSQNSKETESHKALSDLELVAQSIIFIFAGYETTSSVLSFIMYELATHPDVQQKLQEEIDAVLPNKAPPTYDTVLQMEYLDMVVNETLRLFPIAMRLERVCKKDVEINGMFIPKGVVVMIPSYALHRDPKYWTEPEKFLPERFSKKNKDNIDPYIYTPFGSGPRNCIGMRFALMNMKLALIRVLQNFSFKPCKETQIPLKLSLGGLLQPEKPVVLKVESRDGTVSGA

CCCCS(=O)(=O)Nc1ccc2cnn(C)c2c1 [DG167, N-(1-Methyl-1H-indazol-6-yl)butane-1-sulfonamide]
MIC (M. smegmatis): > 50 µM | MIC (M. abscessus): > 50 µM | MIC (M. avium): > 50 µM | MIC (M. fortuitum): > 50 µM | MIC (M. marinum): > 50 µM | induction of iniBAC promoter [1]: approximately 12 fold | EC50 (KasA): 0.131 ± 0.0182 µM | inhibition of mycolic acid biosynthesis [2]: dose-dependent inhibition | killing of persister cultures [3]: minimal killing | expression of the kasA, kasB, and acpM genes and the iniBAC operon [4]: strongly induced expression | CC50 (in vitro [5]): 94 µM | half-life ([6]; pH 2): 192 h | half-life ([6]; pH 9): 57.8 h | Chemical stability t1/2 ([6]; pH 7): Stable | recovery (in vitro [7]; human): 92% | fraction unbound (in vitro [7]; human): 0.081 | recovery (in vitro [7]; mouse): 90.7% | fraction unbound (in vitro [7]; mouse): 0.21 | Human plasma stability at 5 h [8]: 109% | Mouse plasma stability @ 5 h [8]: 99.1% | IC50 (CYP1A2): > 50 µM | IC50 (CYP2C9): > 50 µM | IC50 (CYP2D6): > 50 µM | IC50 (CYP3A4): > 50 µM | IC50 (CYP2C19): 12 µM and 12.4 µM | IC50 (hERG): > 20 µM | AUC(0-t) (in vivo; mouse, in vivo, iv, 5 mg/kg): 1750 ng·h/mL | half-life (in vivo; mouse, in vivo, iv, 5 mg/kg): 0.33 h | AUC(0-t) (in vivo; mouse, in vivo, po, 25 mg/kg): 8080 ng·h/mL | bioavailability (in vivo; plasma, po, 25 mg/kg): 92.3% | MLM stability clint [9]: 68.9 μl/mi/mg protein | MLM-generated metabolites [9]: A demethylated species, corresponding to loss of the 1-methyl group (Fig. S5A), predominated among the metabolites | tolerability, dose escalation (mice, 50 and 100 mg/kg, monitored for 8 h): well tolerated | dose tolerability for 5 days (mice, 5 days, DG167 50 and 100 mg/kg, combination DG167 100 mg/kg with INH 25 mg/kg): did not show any behavioral changes or weight loss | tolerability, dose escalation (mouse, in vivo): heavy breathing, hunched posture, and decreased activity | CC50 (in vitro [10]): 23 µM | half-life (in vitro [11]): 0.168 h | microsomal CLint (in vitro [11]): 68.9 µL/min/mg | half-life (in vitro [11]; MLM stability t1/2 without NADPH, without NADPH): > 5 h | solubility kinetic (physchem): 324 µM (≈ 86.6 µg/mL) | Papp (in vitro [12]; Caco-2, Caco-2 Permeability PA-B): 71.8 ×10⁻⁶ cm/s | Papp (in vitro [12]; Caco-2, Caco-2 Permeability PB-A): 45.6 ×10⁻⁶ cm/s
